Source: patent US20260049071A1, “PROTEIN TYROSINE KINASE INHIBITOR AND MEDICAL USE THEREOF” (BEYANG THERAPEUTICS CO., LTD., priority 2022, published 2026)

Key:
[1] = biological target: VEGFR2 autophosphorylation (pVEGFR2) in HUVEC cells (Homo sapiens (Human), UniProt P35968); test: Inhibition of VEGF-induced VEGFR2 autophosphorylation in HUVEC cells (ELISA); assay type: cell-based; conditions: 50 ng/ml human VEGF, compound 1 h
Text: Vascular endothelial growth factor receptor 2 (VEGFR2) is a primary receptor for VEGF-induced endothelial cell signaling. After ligand binding, VEGFR2 is autophosphorylated and activated. The main function of signaling from VEGFR2 is to induce vascularization during development and after tissue injury, and to bypass blocked blood vessels. Pathologically, VEGF and VEGFR2 are involved in tumor angiogenesis and vascular leakage. They are considered to be main participants in many different cancers and ocular diseases that accompany pathological neovascularization. This assay measured the ability of the compounds to inhibit VEGF-induced VEGFR2 autophosphorylation (pVEGFR2) in HUVEC cells by using ELISA.
Culture cells in a cell culture flask to reach a fusion degree of 60%-80% before cell inoculation. Dilute the cell suspension to […] with a pre-warmed complete medium. Add 80 μL of the cell suspension to all wells of a 96-well cell plate (Corning-3599); and incubate the plate overnight at 37° C. in the presence of 5% CO2. Dissolve the compound powder to 10 mM with DMSO and store it in a nitrogen cabinet. Compound dilution plate: Add a reference compound Ponatinib or a compound to be tested to a 96 V-well plate (Axygen-WIpp 2280) at concentrations achieved as follows: performing 3-fold gradient dilution starting from 5 mM (5 μL of 10 mM compound solution plus 5 μL of DMSO) for a total of 8 concentration points. […] Transfer 20 μL of the diluted compound from the intermediate plate to a cell plate. Then, incubate the cell plate for 1 h at 37° C. in the presence of 5% CO2. After the compound was treated for 1 h, add 25 μL of 250 ng/ml human VEGF at a final concentration of 50 ng/ml to a 96-well plate; and incubate the plate for 5 min at 37° C. in the presence of 5% CO2, centrifuge the plate for 10 min at 3,000 rpm, remove the medium and wash the cells once with 300 μL of pre-chilled DPBS per well. Then, centrifuge the plate for 10 min at 4,000 rpm, remove DPBS, and add 110 μL of pre-chilled 1× cell lysis buffer per well to the 96-well plate. Shake the plate for 40 min at 4° C. Then, freeze the plate in a refrigerator at −80° C. On the next day, remove the plate from the refrigerator at −80° C., thaw the plate, centrifuge the plate for 10 min at 3500 rpm, and add 100 μL of the supernatant per well to an ELISA plate. Seal the plate and incubate it for 2 h at 37° C. Wash the wells 4 times with 1× wash buffer. Add 100 μL of recombinant detection antibody per well. Seal the plate, incubate the plate for 1 h at 37° C., and repeat the step of plate washing. Add 100 μL of secondary antibody per well. Seal the plate, incubate the plate for 30 min at 37° C., and repeat the step of plate washing. Add 100 μL of TMB (protected from light) per well. Seal the plate, incubate the plate for 30 min at 37° C., and add 100 μL of the stop solution per well. Gently shake for 30 sec, measure the absorbance with a SpectraMax® 340 PC 384 Absorbance Microplate Reader within 30 min, and read an optical density value at 450 nm. Conduct data analysis using XL Fit software:
Conduct curve fitting using the 4 Parameter Logistic Model or Sigmoidal Dose-Response Model:
X indicating the log value of compound concentration, Y indicating the inhibition ratio (% inhibition), Top indicating the readout of the negative control wells, and bottom indicating the readout of the positive control well.

EGFR = EGFR (Homo sapiens (Human), UniProt P00533); test: Kinase inhibition, Mobility Shift Assay (EGFR); assay type: biochemical
Chain of EGFR (P00533 25-1210): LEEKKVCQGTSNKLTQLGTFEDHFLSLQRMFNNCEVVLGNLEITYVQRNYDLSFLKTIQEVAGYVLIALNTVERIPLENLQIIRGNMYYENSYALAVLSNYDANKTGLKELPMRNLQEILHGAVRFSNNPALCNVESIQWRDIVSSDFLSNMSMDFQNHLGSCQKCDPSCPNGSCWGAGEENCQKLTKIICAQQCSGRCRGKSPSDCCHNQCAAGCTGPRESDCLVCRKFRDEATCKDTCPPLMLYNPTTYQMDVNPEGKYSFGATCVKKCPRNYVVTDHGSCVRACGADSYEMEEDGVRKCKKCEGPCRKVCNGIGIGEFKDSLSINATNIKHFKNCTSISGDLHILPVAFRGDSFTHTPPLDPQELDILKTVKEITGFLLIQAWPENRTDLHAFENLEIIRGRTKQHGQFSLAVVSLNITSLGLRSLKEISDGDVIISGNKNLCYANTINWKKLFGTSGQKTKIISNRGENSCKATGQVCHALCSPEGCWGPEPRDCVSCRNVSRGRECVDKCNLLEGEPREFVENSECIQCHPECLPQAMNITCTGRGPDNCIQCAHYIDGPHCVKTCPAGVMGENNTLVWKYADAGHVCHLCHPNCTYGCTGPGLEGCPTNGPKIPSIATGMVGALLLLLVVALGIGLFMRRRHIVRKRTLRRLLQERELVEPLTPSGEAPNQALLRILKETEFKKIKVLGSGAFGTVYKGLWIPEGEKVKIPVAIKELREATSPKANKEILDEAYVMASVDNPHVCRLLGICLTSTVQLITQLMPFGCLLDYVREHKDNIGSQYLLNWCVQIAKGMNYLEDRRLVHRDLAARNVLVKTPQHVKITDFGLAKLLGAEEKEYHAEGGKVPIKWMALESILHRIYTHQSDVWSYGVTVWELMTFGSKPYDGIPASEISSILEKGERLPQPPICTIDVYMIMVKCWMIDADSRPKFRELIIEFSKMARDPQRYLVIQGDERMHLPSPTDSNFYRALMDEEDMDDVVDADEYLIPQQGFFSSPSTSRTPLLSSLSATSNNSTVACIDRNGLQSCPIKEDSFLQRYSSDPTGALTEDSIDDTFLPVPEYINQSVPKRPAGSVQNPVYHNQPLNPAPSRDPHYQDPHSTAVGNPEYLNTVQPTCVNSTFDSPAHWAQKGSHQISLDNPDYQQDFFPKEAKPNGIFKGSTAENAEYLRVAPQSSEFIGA
Summary of the method: (§1)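 Mobility shift assay: each kinase preincubated 10 min at room temperature with compound, then reacted with FAM-labeled peptide, MgCl2 and ATP at 28° C. for varying times. Substrate-to-product conversion read on Caliper; % inhibition normalised to no-kinase and DMSO controls, and IC50 fitted.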

KDR (VEGFR2) = KDR (VEGFR2) (Homo sapiens (Human), UniProt P35968); test: Kinase inhibition, Mobility Shift Assay (VEGFR2); assay type: biochemical
Chain of KDR (VEGFR2) (P35968 790-1356): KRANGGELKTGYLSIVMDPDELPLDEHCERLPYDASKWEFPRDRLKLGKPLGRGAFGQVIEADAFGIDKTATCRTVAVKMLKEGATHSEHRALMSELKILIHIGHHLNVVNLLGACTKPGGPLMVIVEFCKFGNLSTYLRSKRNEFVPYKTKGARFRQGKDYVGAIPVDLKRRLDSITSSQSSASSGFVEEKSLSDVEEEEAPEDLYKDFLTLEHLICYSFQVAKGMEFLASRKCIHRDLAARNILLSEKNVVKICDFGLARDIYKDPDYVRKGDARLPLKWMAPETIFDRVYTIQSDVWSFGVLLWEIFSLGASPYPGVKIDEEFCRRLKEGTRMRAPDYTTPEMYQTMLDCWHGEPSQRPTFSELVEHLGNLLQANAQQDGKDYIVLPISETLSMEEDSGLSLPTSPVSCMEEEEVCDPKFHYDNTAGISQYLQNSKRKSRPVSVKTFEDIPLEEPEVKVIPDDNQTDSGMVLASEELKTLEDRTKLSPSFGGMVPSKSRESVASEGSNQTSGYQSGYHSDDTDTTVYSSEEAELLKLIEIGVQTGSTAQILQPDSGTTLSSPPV
Summary of the method: as §1

melanin = test: Binding capacity of compounds to melanin; assay type: in vitro ADME; conditions: Sepia officinalis (cuttlefish), melanin suspension (1 mg/mL); 1 mg/mL melanin suspension in PBS pH 7.4, 2 μM compound, 2 h at 37° C.; read-out: Fu % (percentage of free drug, not bound to melanin)
Summary of the method: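 Compound at 2 μM final incubated with 1 mg/mL Sepia melanin suspension in PBS pH 7.4 for 2 h at 37 °C with shaking; blank control in PBS with 0.1% BSA. Supernatant concentrations measured by LC-MS/MS; bound fraction from melanin versus control samples, free fraction as 100 − Fb.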

Chain of VEGFR2 autophosphorylation (pVEGFR2) in HUVEC cells (P35968 20-1356): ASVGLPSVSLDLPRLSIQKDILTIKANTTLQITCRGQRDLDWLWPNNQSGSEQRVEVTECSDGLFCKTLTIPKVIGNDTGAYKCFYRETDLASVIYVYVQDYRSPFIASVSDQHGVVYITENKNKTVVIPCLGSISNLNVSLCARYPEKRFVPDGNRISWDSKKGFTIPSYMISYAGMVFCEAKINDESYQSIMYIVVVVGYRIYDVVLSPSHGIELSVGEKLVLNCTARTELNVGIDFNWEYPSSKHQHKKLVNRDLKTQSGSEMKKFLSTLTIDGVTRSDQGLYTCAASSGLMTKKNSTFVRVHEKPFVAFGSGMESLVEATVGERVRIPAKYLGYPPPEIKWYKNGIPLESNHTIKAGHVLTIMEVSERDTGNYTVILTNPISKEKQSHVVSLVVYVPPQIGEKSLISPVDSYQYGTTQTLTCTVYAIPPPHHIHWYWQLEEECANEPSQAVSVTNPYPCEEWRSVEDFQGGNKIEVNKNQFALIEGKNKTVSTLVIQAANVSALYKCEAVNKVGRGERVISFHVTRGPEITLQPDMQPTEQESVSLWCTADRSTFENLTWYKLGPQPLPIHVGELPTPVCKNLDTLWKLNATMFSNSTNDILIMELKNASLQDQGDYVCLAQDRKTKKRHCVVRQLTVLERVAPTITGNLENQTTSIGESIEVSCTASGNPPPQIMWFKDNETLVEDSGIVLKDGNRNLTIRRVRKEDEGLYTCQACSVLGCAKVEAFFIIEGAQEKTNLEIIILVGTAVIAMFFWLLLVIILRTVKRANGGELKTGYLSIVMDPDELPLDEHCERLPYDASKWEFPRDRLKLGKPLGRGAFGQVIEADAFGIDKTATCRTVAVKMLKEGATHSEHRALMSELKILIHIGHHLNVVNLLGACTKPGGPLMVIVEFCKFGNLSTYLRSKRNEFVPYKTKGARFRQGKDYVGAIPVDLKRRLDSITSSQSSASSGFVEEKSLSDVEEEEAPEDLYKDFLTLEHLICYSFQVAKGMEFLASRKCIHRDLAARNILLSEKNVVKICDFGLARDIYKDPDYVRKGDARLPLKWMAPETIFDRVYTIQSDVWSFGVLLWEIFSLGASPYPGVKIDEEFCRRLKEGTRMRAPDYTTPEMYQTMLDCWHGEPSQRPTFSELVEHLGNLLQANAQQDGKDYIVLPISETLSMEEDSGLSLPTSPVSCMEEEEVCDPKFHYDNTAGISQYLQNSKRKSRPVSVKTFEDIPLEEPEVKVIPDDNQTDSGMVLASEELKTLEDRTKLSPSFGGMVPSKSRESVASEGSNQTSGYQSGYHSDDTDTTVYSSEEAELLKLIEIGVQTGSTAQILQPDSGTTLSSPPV

| SMILES | IC50 [1] | IC50 (EGFR) | IC50 (KDR (VEGFR2)) | fraction unbound at 2 h, 2 μM (melanin) |
| --- | --- | --- | --- | --- |
| O=C(NC1CC1)c1ccccc1Sc1ccc2c(/C=C/c3ccc(CN4CCCC4)cn3)n[nH]c2c1 [Compound I-41, N-cyclopropyl-2-({3-[(E)-2-{5-[(pyrrolidin-1-yl)methyl]pyridin-2-yl}vinyl]-1H-indazol-6-yl}thio)benzamide] | ≤ 1 nM | 6000 to 60000 nM | ≤ 1 nM | > 0.05 |
| CN1CCC(CCOc2ccc(/C=C/c3n[nH]c4cc(Sc5ccccc5C(=O)NC5CC5)ccc34)nc2)CC1 [Compound I-42, N-cyclopropyl-2-({3-[(E)-2-{5-[2-(1-methylpiperidin-4-yl)ethoxy]pyridin-2-yl}vinyl]-1H-indazol-6-yl}thio)benzamide] | ≤ 1 nM | > 60000 nM | ≤ 1 nM | 0.01 to 0.05 |
| O=C(NC1CC1)c1ccccc1Sc1ccc2c(/C=C/c3cnn(CCCN4CCCC4)c3)n[nH]c2c1 [Compound I-43, N-cyclopropyl-2-({3-[(E)-2-{1-[3-(pyrrolidin-1-yl)propyl]-1H-pyrazol-4-yl}vinyl]-1H-indazol-6-yl}thio)benzamide] | ≤ 1 nM | 6000 to 60000 nM | ≤ 1 nM | 0.01 to 0.05 |
| O=C(NC1CC1)c1ccccc1Sc1ccc2c(/C=C/c3ccc(CCN4CCCC4)cn3)n[nH]c2c1 [Compound I-55, N-cyclopropyl-2-({3-[(E)-2-{5-[2-(pyrrolidin-1-yl)ethyl]pyridin-2-yl}vinyl]-1H-indazol-6-yl}thio)benzamide] | ≤ 1 nM | 6000 to 60000 nM | ≤ 1 nM | 0.01 to 0.05 |
| O=C(NC1CC1)c1ccccc1Sc1ccc2c(/C=C/c3ccc(CCCN4CCCC4)cn3)n[nH]c2c1 [Compound I-59, N-cyclopropyl-2-({3-[(E)-2-{5-[3-(pyrrolidin-1-yl)propyl]pyridin-2-yl}vinyl]-1H-indazol-6-yl}thio)benzamide] | ≤ 1 nM | 6000 to 60000 nM | ≤ 1 nM | 0.01 to 0.05 |
| O=C(NC1CC1)c1ccccc1Sc1ccc2c(/C=C/c3cnn(CCN4CCCC4)c3)n[nH]c2c1 [Compound I-61, N-cyclopropyl-2-({3-[(E)-2-{1-[2-(pyrrolidin-1-yl)ethyl]-1H-pyrazol-4-yl}vinyl]-1H-indazol-6-yl}thio)benzamide] | ≤ 1 nM | 6000 to 60000 nM | 1 to 10 nM | 0.01 to 0.05 |
| O=C(NC1CC1)c1cccc(F)c1Sc1ccc2c(/C=C/c3ccc(CN4CCCC4)cn3)n[nH]c2c1 [Compound I-67] | ≤ 1 nM | 6000 to 60000 nM | 1 to 10 nM | > 0.05 |
| CCN(CC)Cc1ccc(/C=C/c2n[nH]c3cc(Sc4ccccc4C(=O)NC4CC4)ccc23)nc1 [Compound I-78, N-cyclopropyl-2-({3-[(E)-2-{5-[(diethylamino)methyl]pyridin-2-yl}vinyl]-1H-indazol-6-yl}thio)benzamide] | ≤ 1 nM | 6000 to 60000 nM | ≤ 1 nM | 0.01 to 0.05 |
| O=C(NC1CC1)c1cc(F)ccc1Sc1ccc2c(/C=C/c3ccc(CN4CCCC4)cn3)n[nH]c2c1 [Compound I-80, N-cyclopropyl-5-fluoro-2-({3-[(E)-2-{5-[(pyrrolidin-1-yl)methyl]pyridin-2-yl}vinyl]-1H-indazol-6-yl}thio)benzamide] | ≤ 1 nM | 6000 to 60000 nM | ≤ 1 nM | 0.01 to 0.05 |
| CCN(CC)Cc1ccc(/C=C/c2n[nH]c3cc(Sc4cc(F)ccc4C(=O)NC4CC4)ccc23)nc1 [Compound I-83, N-cyclopropyl-2-({3-[(E)-2-{5-[(diethylamino)methyl]pyridin-2-yl}vinyl]-1H-indazol-6-yl}thio)-4-fluorobenzamide] | ≤ 1 nM | 6000 to 60000 nM | ≤ 1 nM | > 0.05 |
| CCN(CC)Cc1ccc(/C=C/c2n[nH]c3cc(Sc4ccc(F)cc4C(=O)NC4CC4)ccc23)nc1 [Compound I-84, N-cyclopropyl-2-({3-[(E)-2-{5-[(diethylamino)methyl]pyridin-2-yl}vinyl]-1H-indazol-6-yl}thio)-5-fluorobenzamide] | ≤ 1 nM | 6000 to 60000 nM | 1 to 10 nM | > 0.05 |
| CCNC(=O)c1ccccc1Sc1ccc2c(/C=C/c3ccc(CN(CC)CC)cn3)n[nH]c2c1 [Compound I-86, 2-({3-[(E)-2-{5-[(diethylamino)methyl]pyridin-2-yl}vinyl]-1H-indazol-6-yl}thio)-N-ethylbenzamide] | ≤ 1 nM | 6000 to 60000 nM | ≤ 1 nM | 0.01 to 0.05 |
| CCN(CC)Cc1ccc(/C=C/c2n[nH]c3cc(Sc4ccccc4C(=O)NC)ccc23)nc1 [Compound I-90, 2-({3-[(E)-2-{5-[(diethylamino)methyl]pyridin-2-yl}vinyl]-1H-indazol-6-yl}thio)-N-methylbenzamide] | ≤ 1 nM | 6000 to 60000 nM | 1 to 10 nM | 0.01 to 0.05 |
| CCN(CC)Cc1ccc(/C=C/c2n[nH]c3cc(Sc4ccccc4C(=O)NCC(F)(F)F)ccc23)nc1 [Compound I-100, 2-({3-[(E)-2-{5-[(diethylamino)methyl]pyridin-2-yl}vinyl]-1H-indazol-6-yl}thio)-N-(2,2,2-trifluoroethyl)benzamide] | ≤ 1 nM | 6000 to 60000 nM | 1 to 10 nM | > 0.05 |
| CCNC(=O)c1cc(F)ccc1Sc1ccc2c(/C=C/c3cnn(CCCN4CCCC4)c3)n[nH]c2c1 [Compound I-104, N-ethyl-5-fluoro-2-({3-[(E)-2-{1-[3-(pyrrolidin-1-yl)propyl]-1H-pyrazol-4-yl}vinyl]-1H-indazol-6-yl}thio)benzamide] | ≤ 1 nM | > 60000 nM | ≤ 1 nM | > 0.05 |
| CNC(=O)c1ccccc1Sc1ccc2c(/C=C/c3ccc(CCN4CCCC4)cn3)n[nH]c2c1 [Compound I-107, N-methyl-2-({3-[(E)-2-{5-[2-(pyrrolidin-1-yl)ethyl]pyridin-2-yl}vinyl]-1H-indazol-6-yl}thio)benzamide] | ≤ 1 nM | 6000 to 60000 nM | 1 to 10 nM | 0.01 to 0.05 |
| CCN(CC)CCc1ccc(/C=C/c2n[nH]c3cc(Sc4ccc(F)cc4C(=O)NC4CC4)ccc23)nc1 [Compound I-109, N-cyclopropyl-2-({3-[(E)-2-{5-[2-(diethylamino)ethyl]pyridin-2-yl}vinyl]-1H-indazol-6-yl}thio)-5-fluorobenzamide] | 1 to 5 nM | 6000 to 60000 nM | ≤ 1 nM | > 0.05 |
| CCNC(=O)c1cccc(F)c1Sc1ccc2c(/C=C/c3cccc(CN4CCCC4)n3)n[nH]c2c1 [Compound I-113, N-ethyl-3-fluoro-2-({3-[(E)-2-{6-[(pyrrolidin-1-yl)methyl]pyridin-2-yl}vinyl]-1H-indazol-6-yl}thio)benzamide] | > 5 nM | 6000 to 60000 nM | > 100 nM | – |
